In patent publication US11464749B2, “Bismuth-thiol compositions and methods of use” (Microbion Corporation, priority 2018, dated 2022):
“Also recorded” adds a separate entry of the source. Read-outs that look alike come from different tables or passages of the source.

Legend:
[1] = system: fully differentiated human airway epithelium (MUCILAIR™); experiment: Acute toxicity on […] (LDH release, TEER, morphology); assay type: cell-based
Protocol: Controlled in vitro evaluation of BisEDT, with respect to potential cytotoxicity on fully differentiated human airway epithelium was carried out. Both solubilized and solid (powder/particulate) forms of BisEDT were evaluated for cytotoxicity by Epithelix, a contract research organization (CRO) specializing in this form of cytotoxicity evaluation utilizing a proprietary, in vitro fully differentiated human airway epithelium test system ([…]™) The […]™ system facilitated evaluation of cytotoxicity through both LDH release (from the culture medium side) and trans-epithelial electrical resistance (TEER) from the apical/air-exposed side as well as pre- and post-exposure microscopic examination for morphological changes (FIG. 13).
The assay system used in this study is Epithelix's proprietary technology […]™ […]™ is a fully differentiated and ready-to-use 3D model of human airway epithelium, constituted with primary human epithelial cells freshly isolated from nasal, tracheal or bronchial biopsies. […]™ (FIG. 24), is not only morphologically and functionally differentiated, but can also be maintained in a homeostatic state for a long period of time (Huang et al., 2009).
[…]™ is composed of basal cells, ciliated cells and mucus cells. The proportion of these various cell types is preserved compared to what one observes in vivo (Huang et al., 2011). Moreover the epithelia are started from de-differentiated cells. The cells undergo a progressive differentiation with time. After 45 days of culture, the epithelia are fully ciliated, secret mucus and are electrically tight (TEER>200 Ω.cm^2). The activity of the main epithelial ionic channels, such as CFTR, EnaC, Na/K ATPase, is preserved and the epithelia is shown to respond in a regulated and vectorial manner to the pro-inflammatory stimulus, TNF-α (Huang et al., 2011). A large panel of cytokines, chemokines and metalloproteinases has been detected in […]™ (e.g. IL-8, IL-6, GM-CSF, MMP-9, GRO-α).
BisEDT (MB-1-B3) was applied on the apical surface of […]™ during 1, 8, 24 and 48 hours (FIG. 13). The effect of 6 concentrations was studied: 0.001, 0.01, 0.1, 1, 10 and 30 μM. […] 30 μl solution at the selected concentration was applied on the apical surface of […]™. The negative control corresponds to the vehicle solution (0 μM) and untreated cultures. The positive control corresponds to 50 μl to 10% Triton X-100 diluted in a buffered saline solution. The study was run in triplicates.
During the study, inserts were maintained in a CO2 incubator (37° C., 5% CO2, 100% humidity). The following end-points were determined: • Tissue integrity monitoring: Trans-Epithelial Electrical Resistance (TEER) measurement (quantitative) at D0, D1 and D2. • Cytotoxicity monitoring: LDH test (quantitative) at D0, D1 and D2. • Morphology: cellular and tissue integrity examined under contrast microscope at D0, D1 and D2.
Three days before the experiment, the following quality controls were performed on each epithelium: • Washing: inserts were washed with 200 μl of […]™ culture medium. Washing removes accumulated mucus on the tissue surface which may interfere with the test. • Trans-Epithelial Electrical Resistance (TEER): TEER was measured to verify that all the selected inserts had tight epithelial barriers and the tissue itself was not disrupted prior to application of the test material. • Tissue morphology: each insert was inspected under a conventional inverted microscope to ensure the quality of the epithelia and determine qualitatively that cilia motion was visible. The presence of mucus was detected by the refractive aspect of the apical surface. Results
Compound BisEDT was applied on the apical surface of […]™. The effect of 5 concentrations after 1, 8,24 and 48 hours exposure was studied: 0.033, 0.33, 3.33, 33.3, 333 μg/cm^2. […]

E. coli ATCC 25922 = conditions: control strain ATCC 25922; per CLSI M100-S24 or provided by Microbion; cited from earlier work
Enterococcus spp. = experiment: Broth microdilution MIC (Example 11); conditions: read-out: MIC values
M. abscessus complex = experiment: MIC against CF bacterial strains (Example 5); assay type: cell-based, Mycobacterium abscessus; conditions: Mycobacteroides abscessus
Protocol: (§1) A range of CF-isolated strains of Mycobacterium avium and Mycobacterium abscessus were included; which allows for understanding of the activity against non-tubercular Mycobacteria (NTM). Two distinct bismuth-thiol compounds were evaluated, including BisEDT and BisBDT. […] The CF-isolates of greater clinical relevance, including both M abscessus spp. and Burkholderia spp., were both consistently found to be much more susceptible to BisEDT and BisBDT.

M. avium = experiment: MIC against CF bacterial strains (Example 5); assay type: cell-based, Mycobacterium avium
Protocol: as §1

P. aeruginosa = experiment: MIC against CF bacterial strains (Example 5); conditions: Pseudomonas aeruginosa
[2] = system: P. aeruginosa and A. baumannii; experiment: Broth microdilution MIC (Example 11); conditions: read-out: MIC values
Burkholderia spp. = experiment: organism not typed; assay type: cell-based; conditions: during FIC testing; B. multivorans isolate 1795 (MEM-I, CIP-R)
[3] = solid, 0.033 and 0.33 μg/cm^2, all tested time points
[4] = solution, all tested concentrations and time points

C1C[S][Bi]([S]CC[S][Bi]2[S]CC[S]2)[S]1 [BisEDT, bismuth-1,2-ethanedithiol]
toxic effects (morphology, LDH release, TEER), BisEDT in solution ([1]; 0.001-30 μM (30 uM = 20.83 ug/mL) apical, 1, 8, 24, 48 hours): no toxic effects were observed; also recorded: no local toxicity
toxic effects (morphology, LDH release, TEER), particulate BisEDT in dextran ([1]; lower two concentrations (0.033, 0.33 μg/cm^2), up to 48 hours): no toxic effects were observed
TEER (tissue integrity) ([1]; solid, 1 μg/cm^2, 8, 24 and 48H): Loss of tissue integrity
LDH release (cytotoxicity) ([1]; solid, 1 μg/cm^2, 8, 24 and 48 h): time- and dose-dependent cytotoxicity
LDH release (cytotoxicity) ([1]; solid, 1 μg/cm^2, 1 hour): No significant effect
TEER (tissue integrity) ([1]; solid, 1 μg/cm^2, 1 hour): no significant effect
Morphology after exposure ([1]; solid, 1 μg/cm^2, 1 hour and 8 hour): no important morphological changes were observed
Morphology after exposure ([1]; solid, 1 μg/cm^2, 24 h): epithelial cells on 2 inserts out of 3 were dead
Morphology after exposure ([1]; solid, 1 μg/cm^2, 48 h): epithelial cells on all 3 inserts were dead
Morphology after exposure ([1]; solid, 3.33 μg/cm^2, 24 and 48 h): Cells were rounded and opaque at the periphery of inserts
Morphology after exposure ([1]; solid, 0.033 and 0.33 μg/cm^2): No morphological modifications were observed
LDH release (cytotoxicity) [1, 3]: No significant effect
TEER (tissue integrity) [1, 3]: No significant effect
cytotoxicity (LDH increase, TEER reduction) ([1]; solid, 1 and 3.33 μg/cm^2, 24 h and 48 h): induces cytotoxicity
LDH release (cytotoxicity) ([1]; solid, 3.3, 33.3 and 333 μg/cm^2, beyond 1 hour): time and dose dependent increase in LDH release; also recorded: time and dose dependent, cytotoxicity
TEER (tissue integrity) ([1]; solid, 3.33, 33.3 and 333 μg/cm^2, 8, 24 and 48H exposure): Loss of tissue integrity
toxicity (LDH, TEER, morphology) ([1]; solid, 33.3, 333 μg/cm^2): strong toxicity
Morphology after exposure ([1]; solid, 33.3 and 333 μg/cm^2, 8, 24 and 48 h): Cells were rounded and opaque on the inserts
TEER (tissue integrity) ([1]; solid, all tested doses, 1 hour exposure): no significant effect
Morphology after exposure [1, 4]: No morphology changes were observed
TEER (tissue integrity) [1, 4]: didn't show significant effect
LDH release (cytotoxicity) ([1]; solution, all tested concentrations and time-points): not altered
Expected MIC: goal (acceptable range) (E. coli ATCC 25922): 1 (0.5-2) mcg/mL

CC(S)C(C)S.[Bi] (centres unmarked) [BisBDT, bismuth-2,3-butanedithiol]
MIC (Enterococcus spp.): 0.25 to 1 µg/mL
MIC (M. abscessus complex; AMT0068-40, M abscessus/massiliense complex, read-out: MIC): 0.06 µg/mL
MIC (M. abscessus complex; AMT 0068-40, MABSC CF isolate, macrolide-S, amikacin-I): 0.125 µg/mL
MIC (M. abscessus complex; AMT 0089-5, MABSC CF isolate, macrolide-R, amikacin-R): 0.125 µg/mL
MIC (M. abscessus complex; AMT0119-7, M abscessus/massiliense complex, read-out: MIC): < 0.03 µg/mL
MIC (M. abscessus complex; AMT 0119-7, MABSC CF isolate, macrolide-S, amikacin-I): 0.125 µg/mL
MIC (M. abscessus complex; AMT0130-8, M abscessus/massiliense complex, read-out: MIC): < 0.03 µg/mL
MIC (M. abscessus complex; AMT 0130-8, MABSC CF isolate, macrolide-S, amikacin-I, read-out: MIC): 0.0625 µg/mL
MIC (M. abscessus complex; AMT 0136-10, MABSC CF isolate, macrolide-R, amikacin-R, read-out: MIC): 0.0625 µg/mL
MIC (M. abscessus complex; AMT153-9, M abscessus/massiliense complex, read-out: MIC): < 0.03 µg/mL
MIC (M. abscessus complex; AMT 0153-9, MABSC CF isolate, macrolide-S, amikacin-I): 0.125 µg/mL
MIC (M. abscessus complex; AMT 0157-14, MABSC CF isolate, macrolide-R, amikacin-I): 0.125 µg/mL
MIC (M. abscessus complex; AMT 0166-29, MABSC CF isolate, macrolide-R, amikacin-R): 0.125 µg/mL
MIC (M. abscessus complex; AMT0493-2, M abscessus/massiliense complex, Amikacin resistant, read-out: MIC): 0.125 µg/mL
MIC (M. abscessus complex; AMT 0493-2, MABSC CF isolate, macrolide-S, amikacin-R): 0.5 µg/mL
MIC (M. abscessus complex; ATCC19977, ATCC 19977, M abscessus/massiliense complex, Macrolide resistant (inducible), read-out: MIC): < 0.03 µg/mL
MIC (M. abscessus complex; ATCC19977, ATCC 19977, M. abscessus abscessus, ATCC type strain, read-out: MIC): 0.25 µg/mL
MIC (M. avium; Mycobacterium avium): > 16 µg/mL
MIC (M. avium; strain MAC101, MAC reference strain, blood isolate from HIV patient): 1 µg/mL
MIC (P. aeruginosa; strain AGR1): 1 µg/mL
MIC (P. aeruginosa; strain AGR14, Multi-drug resistant): 1 µg/mL
MIC (P. aeruginosa; strain MR14, Multi-drug resistant): 1 µg/mL
MIC [2]: 0.5 to 2 µg/mL

C[C@@H](O)[C@H]1C(=O)N2C(C(=O)O)=C(S[C@@H]3CN[C@H](C(=O)N(C)C)C3)[C@H](C)[C@H]12 [MEM]
MIC (Burkholderia spp.): 4 µg/mL
